Assay [1] relates to HCV genotype 1a replicon cells. Kind of assay: Drug-resistant colony selection in replicon cells. It is filed as cell-based, Hepatitis C virus. From the text:
(§1) . After approximately 3 weeks of treatment, the surviving replicon colonies in one plate for each selection condition were stained with crystal violet and counted, whereas approximately 20 to 30 colonies in a replicate plate or most of the colonies, if less than 20 colonies survived the selection, were picked and further expanded for genotyping. The expanded colonies were lysed in CellsDirect lysis buffer (Invitrogen, MA), and the NS3-coding region from each colony was amplified by reverse transcription-PCR and sequenced. For genotype 1a, 1b, 2a, and 5a colonies, the full-length NS3 sequence was determined, whereas for colonies of the chimeric replicon containing the N-terminal region of NS3 from genotype 2b, 3a, 4a, or 6a, the sequence encoding the NS3 N-terminal region was determined. We defined a substitution in a replicon to be an amino acid difference in a sequence from a posttreatment sample relative to the sequence of the corresponding untreated sample. For resistance selection studies, NS3 substitutions detected at the following amino acid positions associated with resistance to the HCV PI class in >2 colonies in each replicon selection are reported: 36, 43, 54, 55, 56, 80, 122, 155, 156, and 168. In addition, substitutions detected at other amino acid positions in the NS3 protease domain in >2 colonies in each replicon selection are also reported.
(§2) […]. The drug-resistant colonies were fixed and stained with crystal violet, and the number of colonies was determined.
In general terms: A replicon is a self-replicating genome or part of one, used to study replication in cells.

The test system of assay [2] is HCV genotype 1b replicon cells. Kind of assay: Drug-resistant colony selection in replicon cells. It is filed as cell-based, Hepatitis C virus.
Excerpt: as §1, §2

For assay [3], the system named is HCV genotype 4a replicon cells. Kind of assay: Drug-resistant colony selection in replicon cells. It is filed as cell-based, Hepatitis C virus.
Excerpt: as §1

Assay [4] has as its system HCV genotype 2b replicon cells. Nature of the assay: Drug-resistant colony selection in replicon cells. It is filed as cell-based, Hepatitis C virus.
Excerpt: as §1

A further assay concerns the target T1, Cathepsin B (Homo sapiens, UniProt P07858).
T1 construct: purchased Sigma-Aldrich
Kind of assay: Human protease biochemical assay. Particulars: read-out: Mean IC50 ± SD. The procedure:
(§3) […]; catalog number M9771; Sigma-Aldrich), and 0.05 U/ml elastase (excitation wavelength = 370 nm, emission wavelength = 460 nm); (ii) for chymase, 0.4 M Tris, pH 8.0, 1.8 M NaCl, 9% dimethyl sulfoxide, 0.4 mM substrate (Suc-AAF-AMC; catalog number S8758; Sigma-Aldrich), and 0.063 U/ml chymase (excitation wavelength = 370 nm, emission wavelength = 460 nm); (iii) for cathepsin B, 50 mM MES (morpholineethanesulfonic acid), pH 6.0, 50 mM NaCl, 2 mM EDTA, 0.1% Triton X-100, 0.4 mM substrate (Z-RR-AMC; catalog number C5429; Sigma-Aldrich), and 1.7 μg/ml cathepsin B (excitation wavelength = 370 nm, emission wavelength = 460 nm); (iv and v) for chymotrypsin types II and VII, 50 mM Tris, pH 8, 10 mM CaCl2, 0.1% Triton X-100, 0.25 mM substrate (Suc-AAF-AMC; catalog number S8758; Sigma-Aldrich), and 0.5 nM chymotrypsin type II or type VII (excitation wavelength = 370 nm, emission wavelength = 460 nm); (vi) for kallikrein, 50 mM Tris, pH 7.4, 0.5 mM EDTA, 0.05% Tween 20, 150 mM NaCl, 0.35 mM substrate (H-Pro-Phe-Arg-AMC; catalog number I-1295; Bachem), and 2 nM kallikrein (excitation wavelength = 355 nm, emission wavelength = 460 nm); and (vii) for urokinase, 50 mM Tris, pH 7.4, 0.15 M NaCl, 0.5% Pluronic F-68, 0.2 mM substrate (pyro-Glu Arg-p-nitroanilide-HCl; catalog number S-2444; Diapharma), and 3 nM urokinase (absorbance at 405 nm).

In a further assay the target is T2, Chymotrypsin type VII (Bos taurus, UniProt P00766).
T2 construct: purchased Sigma-Aldrich
Nature of the assay: Human protease biochemical assay. Particulars: read-out: Mean IC50 ± SD. On the procedure:
as §3

The next assay concerns the target T3, Urokinase (Homo sapiens, UniProt P00749).
T3 construct: purchased Sigma-Aldrich
Nature of the assay: Human protease biochemical assay. Particulars: read-out: Mean IC50 ± SD. The procedure:
as §3

A further assay has as its target T4, Elastase (Homo sapiens, UniProt P08246).
T4 construct: purchased Sigma-Aldrich
Nature of the assay: Human protease biochemical assay. The conditions noted are these: read-out: Mean IC50 ± SD. The procedure: as §3

The next assay addresses T5, Chymase (Homo sapiens, UniProt P23946).
T5 construct: purchased Sigma-Aldrich
Kind of assay: Human protease biochemical assay. The conditions noted are these: read-out: Mean IC50 ± SD. The procedure:
as §3

A further assay deals with T6, Chymotrypsin type II (Bos taurus, UniProt P00766).
T6 construct: purchased Sigma-Aldrich
Nature of the assay: Human protease biochemical assay. The conditions noted are these: read-out: Mean IC50 ± SD. The procedure:
as §3

For assay [5], the system named is HCV subgenomic stable replicon GT1a H77. The format is cell-based, Hepatitis C virus. The conditions noted are these: 0% human plasma, read-out: Mean EC50 ± SD. From the text:
(§4) Five of these nine cell lines have been described previously, including those transfected with genotypes 1a H77, 1b Con1, 3a, 4a, and 6a ([28]). […] The genotype 2b and 6e NS3 sequences were each synthetically constructed based on a consensus sequence derived from the alignment of 15 genotype 2b and 4 genotype 6e sequences, respectively. All replicon constructs were bicistronic subgenomic replicons similar to those described by Bartenschlager and coworkers, and the replicon cell lines were generated by introducing these constructs into cells of an Huh-7 human hepatoma-derived cell line ([50]). The inhibitory effect of the PIs on HCV replication in replicon cells was determined in Dulbecco's modified Eagle medium containing 5% fetal bovine serum with or without 40% human plasma (Bioreclamation, Westbury, NY). The EC50s were determined using nonlinear regression curve fitting as described previously ([33]).

The test system of assay [6] is HCV subgenomic stable replicon GT2a JFH-1. The format is cell-based, Hepatitis C virus. Particulars: GT2a JFH-1 stable replicon, 0% human plasma; read-out: Mean EC50 ± SD.
Excerpt: as §4

The test system of assay [7] is HCV subgenomic stable replicon GT1b Con1. It is filed as cell-based, Hepatitis C virus. Particulars: 0% human plasma, read-out: Mean EC50 ± SD.
Excerpt: as §4

Assay [8] deals with HCV genotype 1 to 6 replicons containing NS3 substitutions. Kind of assay: Transient replicon assay with engineered substitutions, summary over genotypes. The format is cell-based, Hepatitis C virus. The procedure:
Mutagenesis was performed using a Change-IT multiple-mutation site-directed mutagenesis kit (USB, Cleveland, OH) or by cloning a synthesized DNA fragment encoding the amino acid substitution(s). The genotype 1a and 1b replicon shuttle vectors used for the introduction of the substitutions of interest in the NS3, NS5A, or NS5B gene for transient-transfection assays have been described previously ([28], [33]). The replicon shuttle vectors used for the introduction of substitutions in NS3 genes from other genotypes were similar to the stable replicon cell line constructs described above, except for the absence of the neo gene. After mutagenesis, the plasmids were linearized and RNA was transcribed and then used to transfect Huh-7 cells. Inhibition of HCV replication by the HCV inhibitors was measured by luciferase assay, as described above. Replication efficiency was calculated as a percentage of wild-type replication, as described previously ([28]).

T5 sequence (P23946 22-247): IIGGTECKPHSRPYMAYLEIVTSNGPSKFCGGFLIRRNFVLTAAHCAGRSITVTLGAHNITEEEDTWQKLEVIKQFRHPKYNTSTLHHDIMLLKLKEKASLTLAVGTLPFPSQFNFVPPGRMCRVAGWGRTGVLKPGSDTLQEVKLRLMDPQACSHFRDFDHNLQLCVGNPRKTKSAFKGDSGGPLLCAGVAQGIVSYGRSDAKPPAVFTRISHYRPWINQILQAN
T4 sequence (P08246 30-247 limits assumed): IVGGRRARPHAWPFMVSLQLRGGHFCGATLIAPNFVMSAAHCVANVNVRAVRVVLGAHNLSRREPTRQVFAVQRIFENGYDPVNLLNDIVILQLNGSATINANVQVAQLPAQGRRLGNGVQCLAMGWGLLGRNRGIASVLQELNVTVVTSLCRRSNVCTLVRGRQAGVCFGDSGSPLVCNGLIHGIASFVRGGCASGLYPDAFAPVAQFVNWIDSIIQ

One may read the IC50 as the concentration needed to halve the response being measured. As to `CC(C)(C)[C@@H]1NC(=O)O[C@@H]2CCC[C@H]2OC/C=C/C(F)(F)c2nc3ccccc3nc2O[C@@H]2C[C@@H](C(=O)N[C@]3(C(=O)NS(=O)(=O)C4(C)CC4)C[C@H]3C(F)F)N(C2)C1=O` [Glecaprevir, (3aR,7S,10S,12R,21E,24aR)-7-tert-butyl-N-[(1R,2R)-2-(difluoromethyl)-1-{[(1-methylcyclopropyl)sulfonyl]carbamoyl}cyclopropyl]-20,20-difluoro-5,8-dioxo-2,3,3a,5,6,7,8,11,12,20,23,24a-dodecahydro-1H,10H-9,12-methanocyclopenta[18,19][1,10,17,3,6]trioxadiazacyclononadecino[11,12-b]quinoxaline-10-carboxamide], the Colony survival was determined as 0.043% in [1] (10× EC50, about 3 weeks); 0.0029% in assay [1] (100× EC50); 0.047% in [2] (10× EC50, about 3 weeks); 0.03% in assay [2] (100× EC50); 0.0015% in assay [3] (10× EC50); 0.0018% in [3] (100× EC50). The Colony survival in [4] (10× EC50) and in [4] (100× EC50) was above 0.05% in each case. Besides, the IC50 at Cathepsin B, at Chymotrypsin type VII, on Urokinase, at Elastase, on Chymase and at Chymotrypsin type II was above 200 µM each time.

A word on the EC50: it is the concentration needed to bring the measured effect to its halfway point. Turning to `C=C[C@@H]1C[C@]1(NC(=O)[C@@H]1C[C@@H]2CN1C(=O)[C@H](C(C)(C)C)NC(=O)O[C@@H]1C[C@H]1CCCCCc1nc3ccc(OC)cc3nc1O2)C(=O)NS(=O)(=O)C1CC1` [Grazoprevir], the EC50 in assay [5] turned out to be 0.37 ± 0.05 nM; in assay [6], 8.6 ± 3 nM; in [7], 1 ± 0.17 nM.

On to `Cc1cnc(C(=O)N[C@H]2CCCCC/C=C\[C@@H]3C[C@@]3(C(=O)NS(=O)(=O)C3CC3)NC(=O)[C@@H]3C[C@@H](Oc4nc5ccccc5c5ccccc45)CN3C2=O)cn1` [Paritaprevir], for which, in assay [8] (R155 substitutions in genotypes 1, 3 and 4), the “Fold decrease in susceptibility” value was 5.2- to 59 fold. In assay [8] (replicons with A156 substitutions in genotypes 1 to 4), the “Fold reduction in antiviral activity, range” value was 1.7- to 155 fold.

The record behind these values is article PMC5740381 (Antimicrobial Agents and Chemotherapy, 2017).
